According to US8110217B2, “Sphingomyelin liposomes for the treatment of hyperactive bladder disorders” (priority 2001, dated 2012):
Values joined by “and” are separate entries in the source; they are usually repeats but may differ in a detail not shown here. Equal values may be shown once. “Also recorded” adds a separate entry of the source.

Tested on: acute hyperactive bladder
Test: Continuous CMG, acute hyperactive bladder model with intravesical PS and KCl (Examples 7-8)
Format: in vivo, female Sprague-Dawley rats
Procedure: An animal model for acute hyperactive bladder in rats was developed using intravesical infusion of PS, an agent used to break down urothelial barrier function and physiological concentrations of KCl.
Continuous CMGs were performed in urethane-anesthetized female rats. The bladder was filled (0.04 ml/min) with normal saline followed by intravesical infusion for a 60 minute period with a test solution comprising either KCl (100 or 500 mM) or PS (10 or 30 mg/ml). Following this, 10 mg/ml PS treated animals were infused intravesically with 100, 300 or 500 mM KCl. Some animals were pretreated with capsaicin ([…], sc) four days before the experiments.
Animal Preparation. The study was performed on 40 female Sprague-Dawley rats weighing 250-300 gm. Animals were anesthetized with 1.2 gm/kg urethane injected subcutaneously. Body temperature was maintained in the physiological range using a heating lamp.
Cystometrogram (CMG). PE-50 tubing (Clay-Adams, Parsippany, N.J.) was inserted into the bladder through the urethra and connected via a three-way stopcock to a pressure transducer and to a syringe pump. This was used for recording intravesical pressure and for infusing solutions into the bladder. A control CMG was performed by slowly filling the bladder with saline (0.04 ml/min) to elicit repetitive voiding. The amplitude, PT, compliance and intercontraction interval (ICI) of reflex bladder contractions were recorded. Pressure threshold (PT) represents the pressure that induces the initial bladder contraction. PT often has been used as a parameter corresponding to afferent nerve activity for the induction of reflex bladder contractions. Measurements in each animal represented the average of 3 to 5 bladder contractions.
After performing control CMGs with saline infusion, three intravesical infusion experiments were performed in parallel: (1) infusion of KCl (100 or 500 mM in saline) for one hour (N=4 in each group); (2) infusion of PS (Sigma Chemical Co.; 30 mg/ml in saline) for one hour (N=6); and (3) infusion of PS (10 mg/ml) for one hour, followed by 100, 300 or 500 mM KCl for one hour (N=6, in each subgroup). In four animals, capsaicin dissolved in a vehicle containing 10% ethanol, 10% TWEEN®80 and 80% physiological saline, at a concentration of 20 mg/ml was given subcutaneously in divided doses on 2 consecutive days. The doses included 25 and 50 mg/kg at a 12-hour interval on the first day and 50 mg/kg on the second day, as previously described (C. L. Cheng et al., 1993, Am. J. Physiol. 265:R132-138). All injections were performed under halothane anesthesia. Four days after the last dosage of capsaicin, the animals were anesthetized and treated with intravesical administration of PS (10 mg/ml) for 1 hour followed by KCl (500 mM) infusion.
Suppression of Micturition Reflex. To evaluate the direct effects of potassium on detrusor muscle, micturition reflex was blocked in 4 animals by either intravenous hexamethonium injection (25 mg/kg) (N=2) or transection of bilateral pelvic nerves (N=2).
Statistical Analysis. Statistical analyses were performed using Student's t test for paired or unpaired data, as applicable, with p<0.05 considered significant. Quantitative data are expressed in Example 8 (below) as means plus or minus standard error.

[1] = 100 mM KCl alone, one hour, N=4
[2] = 100 mM KCl following 10 mg/ml PS, N=6
[3] = 300 mM KCl following 10 mg/ml PS, N=6
[4] = 300 mM KCl following PS 10 mg/ml
[5] = 500 mM KCl alone, one hour, N=4
[6] = 500 mM KCl following 10 mg/ml PS, N=6
[7] = 500 mM KCl following PS 10 mg/ml
[8] = KCl 500 mM 1 hr after one hour PS 10 mg/ml, capsaicin pretreated animals, N=4
[9] = KCl 500 mM 2 hr after one hour PS 10 mg/ml, capsaicin pretreated animals, N=4
[10] = KCl 500 mM following PS 10 mg/ml, micturition reflex suppressed animals
[11] = capsaicin pretreated animals, PS 10 mg/ml then KCl 500 mM, 2 hours of infusion

In the case of `[Cl-].[K+]` [KCl], the Amplitude [1] is reported as 28.2 ± 0.5 cm H2O, the Compliance [1] is reported as 0.205 ± 0.032 ml/cm H2O and the ICI [1] is reported as 13.8 ± 2.0 min. The PT [1] was 5.9 ± 0.5 cm H2O, the Amplitude [2] was 28.2 ± 3.7 cm H2O and the Compliance [2] was 0.157 ± 0.022 ml/cm H2O. For the same compound, the ICI [2] was 18.8 ± 2.1 min, the PT [2] was 3.0 ± 1.3 cm H2O and the Amplitude [3] was 31.3 ± 0.7 cm H2O. For the same compound, the Compliance [3] was 0.066 ± 0.012 ml/cm H2O, the ICI [3] was 5.2 ± 1.7 min and the PT [3] was 3.3 ± 0.9 cm H2O. For the same compound, the ICI decrease [4] was 76.9%, the compliance decrease [4] was 60% and the contraction amplitude increase [4] was 23.7%. For the same compound, the “onset of irritation (delay)” value [4] was 20 to 30 min, the Amplitude [5] was 28.8 ± 1.2 cm H2O and the Compliance [5] was 0.237 ± 0.023 ml/cm H2O. For the same compound, the ICI [5] was 15.8 ± 2.4 min, the PT [5] was 8.2 ± 0.9 cm H2O and the Amplitude [6] was 29.5 ± 3.4 cm H2O. The Compliance [6] was 0.075 ± 0.009 ml/cm H2O, the ICI [6] was 3.2 ± 1.3 min and the PT [6] was 5.4 ± 1.0 cm H2O. It also gave an ICI decrease [7] of 82.9%, a compliance decrease [7] of 63.4% and a contraction amplitude increase [7] of 21.4%. The “onset of irritation (delay)” value [7] was 10 to 15 min, the “PT change” value (300 or 500 mM KCl following PS 10 mg/ml) was “not significantly altered” and the Amplitude [8] was 20.3 ± 0.3 cm H2O. For the same compound, the Compliance [8] was 0.218 ± 0.013 ml/cm H2O, the ICI [8] was 21.3 ± 2.8 min and the PT [8] was 5.8 ± 0.5 cm H2O. The Amplitude [9] was 16.0 ± 1.7 cm H2O, the Compliance [9] was 0.100 ml/cm H2O and 0.100 ± 0.016 ml/cm H2O and the ICI [9] was 13.1 ± 2.8 min. For the same compound, the PT [9] was 7.6 ± 1.7 cm H2O, the Compliance [10] was 0.041±0.011 ml/cm H2O and the compliance decrease [10] was 55.9%. For the same compound, the “detrusor muscle / bladder compliance” value [10] was “stimulated the detrusor muscle and decreased bladder compliance”, the “irritative effects / CMG parameters” value (KCl 100 or 500 mM alone) was “not observed; also recorded: not significantly different from those during saline administration” and the ICI decrease [11] was 36%. For the same compound, the compliance decrease [11] was 55%, the “bladder hyperactivity” value (high concentrations of KCl (300/500 mM) following one hour of PS 10 mg/ml) was “induced bladder hyperactivity (decrease ICI)” and the “CMG parameters” value (low concentration KCl (100 mM), one hour, following PS 10 mg/ml) was “did not produce significant changes in the CMG parameters; also recorded: had no effect”.
